Assay results from article PMC3250956, “Functional characterization and analgesic effects of mixed cannabinoid receptor/T-type channel ligands” (Molecular Pain, 2011).
Like-named read-outs stand apart in the source and are kept apart here.

Experiments:
Human CB2 [1] = target: T1, Human CB2 (Homo sapiens, UniProt P34972); assay: Radioligand competitive binding, [3H]CP55940, HEK293 cells; set-up: expressed in transfected cells; settings: for Human CB2 (%) primary radioligand competitive binding: ligand 10 μM, HEK293 cells
Protocol: (§1) HEK293 cells and CHO cells were used in the radioligand binding assay while tsA-201 cells were used in the electrophysiological study. Human CB2, human 5-HT2A, rat 5-HT2C used in the binding studies were cloned into pcDNA5.0FRT and cell lines were made using the FlpIn system from Invitrogen. tsA-201 cell culture and transient calcium channel transfection were performed as described previously. In brief, tsA-201 cells were transfected using the calcium phosphate method. Cav3.1, 3.2 and 3.3 α1 subunits were transfected individually with yellow fluorescent protein as a transfection marker.
CB1 and CB2 radioligand binding data were obtained using National Institute of Mental Health (NIMH) Psychoactive Drug Screening Program (PDSP) resources as described earlier. Compounds were screened in a competitive binding experiment using, respectively, membrane fractions prepared from rat brain homogenate expressing CB1 receptor and HEK293 cells expressing the human CB2 receptor. Experiments were conducted at a range of different concentrations and in duplicate. The competition binding experiment for CB1 and CB2 was performed in 96 well plates containing Standard Binding Buffer (50 mM Tris HCl, 1 mM EDTA, 3 mM MgCl2, 5 mg/ml fatty acid-free BSA, pH 7.4). The radioligand was [^3H]CP55940, and the reference compound was CP55940. A solution of the compound to be tested was prepared as a 1 mg/ml stock in DMSO and then diluted in Standard Binding Buffer by serial dilution. Radioligand was diluted to five times the assay concentration in Standard Binding Buffer. Aliquots (50 μl) of radioligand were dispensed into the wells of a 96-well plate containing 100 μl of Standard Binding Buffer. Then, duplicate 50-μl aliquots of the test and reference compound dilutions were added. Finally, crude membrane fractions of cells were resuspended in 3 ml of chilled Standard Binding Buffer and homogenized by several passages through a 26 gauge needle, then 50 μl were dispensed into each well. The 250-μl reactions were incubated at room temperature for 1.5 hours, and then harvested by rapid filtration onto Whatman GF/B glass fiber filters pre-soaked with 0.3% polyethyleneimine using a 96-well Brandel harverster. Four rapid 500-μl washes were performed. Filters were placed in 6-ml scintillation tubes and allowed to dry overnight. Bound radioactivity was harvested onto 0.3% polyethyleneimine-treated, 96-well filter mats using a 96-well Filtermate harvester. The filter mats were dried, then scintillant was melted onto the filters and the radioactivity retained on the filters counted in a Microbeta scintillation counter. Raw data (dpm) representing total radioligand binding (i.e., specific + non-specific binding) were plotted as a function of the logarithm of the molar concentration of the competitor (i.e., test or reference compound). Non-linear regression of the normalized (i.e., percent radioligand binding compared to that observed in the absence of test or reference compound) raw data was performed in Prism 4.0 (GraphPad Software) using the built-in three parameter logistic model describing ligand competition binding to radioligand-labeled sites: y = bottom + [(top-bottom)/(1 + 10 × -logIC50)] where bottom equals the residual radioligand binding measured in the presence of 10 μM reference compound (i.e., non-specific binding) and top equals the total radioligand binding observed in the absence of competitor. The log IC50 (i.e., the log of the ligand concentration that reduces radioligand binding by 50%) is thus estimated from the data and used to obtain the Ki by applying the Cheng-Prusoff approximation: Ki = IC50/(1 + [ligand]/KD) where [ligand] equals the assay radioligand concentration and KD equals the affinity constant of the radioligand for the target receptor.

Human CB2 [2] = target: T1, Human CB2; assay: GTPγ[35S] functional assay, CHO cell membrane extracts; assay type: biochemical; set-up: expressed in transfected cells; host or cells: CHO cells (membrane extracts); settings: for Emax: read-out: GTPγ[35S] functional assays Human CB2 Emax
human 5-HT2A = target: T2, human 5-HT2A (Homo sapiens, UniProt P28223); assay: Primary radioligand competitive binding assay, [3H]ketanserin; settings: ligand 10 μM, HEK293 cells
T2 construct: expressed in transfected cells; host or cells: HEK293 (Flp-In system, pcDNA5.0FRT)
Protocol: as §1
Radioligand binding data were obtained using National Institute of Mental Health's Psychoactive Drug Screening Program (NIMH/PDSP) using the same protocol described for CB1 and CB2 binding experiments. Transfected HEK293 (human 5-HT2A or rat 5-HT2C) cells were used. The radioligands were [^3H]ketanserin (0.5 nM) and [^3H]mesulergine (0.5 nM) for respectively 5-HT2A and 5-HT2C experiments. Non-specific binding was determined in the presence of 10 μM chlorpromazine for both 5-HT2A and 5-HT2C binding experiments. Cells were harvested and homogenized in 50 mM Tris HCl, 10 mM MgCl2, 0.1 mM EDTA, pH 7.4. Incubation of radioreceptor binding assay mixtures was 1.5 hours at room temperature in the dark.

T1 sequence (P34972 whole entry): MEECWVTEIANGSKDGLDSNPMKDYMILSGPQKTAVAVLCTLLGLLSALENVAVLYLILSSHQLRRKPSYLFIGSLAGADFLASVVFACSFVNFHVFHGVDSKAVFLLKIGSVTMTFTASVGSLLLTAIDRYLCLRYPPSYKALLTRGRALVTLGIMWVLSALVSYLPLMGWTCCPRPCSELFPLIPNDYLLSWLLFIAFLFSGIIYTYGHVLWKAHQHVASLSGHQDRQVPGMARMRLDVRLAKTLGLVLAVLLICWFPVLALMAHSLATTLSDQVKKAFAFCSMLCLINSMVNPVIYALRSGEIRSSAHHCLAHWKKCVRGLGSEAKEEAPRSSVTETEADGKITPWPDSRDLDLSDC
T2 sequence (P28223 whole entry): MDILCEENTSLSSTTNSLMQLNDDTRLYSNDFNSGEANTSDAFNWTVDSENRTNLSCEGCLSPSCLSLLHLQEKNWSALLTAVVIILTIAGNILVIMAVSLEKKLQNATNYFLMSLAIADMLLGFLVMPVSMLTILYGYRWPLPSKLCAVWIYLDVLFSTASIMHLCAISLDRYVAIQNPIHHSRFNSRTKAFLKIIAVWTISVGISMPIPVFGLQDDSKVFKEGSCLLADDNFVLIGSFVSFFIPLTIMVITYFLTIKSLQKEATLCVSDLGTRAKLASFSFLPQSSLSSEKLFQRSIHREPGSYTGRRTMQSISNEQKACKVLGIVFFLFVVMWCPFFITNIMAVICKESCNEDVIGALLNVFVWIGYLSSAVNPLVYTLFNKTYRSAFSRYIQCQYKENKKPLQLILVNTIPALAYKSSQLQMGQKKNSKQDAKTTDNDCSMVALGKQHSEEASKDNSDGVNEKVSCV

| Structure (SMILES) | Ki (Human CB2 [1]; NA: not active at 1 μM, read-out: Mean Ki Human CB2) [nM] | Human CB2 (%) primary radioligand competitive binding (Human CB2 [1]) [%] | EC50 (Human CB2 [2]) [nM] | Emax (Human CB2 [2]) [%] | Human 5-HT2A (%) primary radioligand competitive binding (human 5-HT2A) [%] | Ki (Human CB2 [1]) [nM] |
| --- | --- | --- | --- | --- | --- | --- |
| CCCCCn1c2ccc(C(=O)N3CCCCC3)cc2c2ccc(OC)cc21 [NMP-4] | 7.5 ± 0.7 | 104.4 | 9.8 ± 0.3 | -76.4 | 23.9 | – |
| CCCCCn1c2c(c3ccc(OC)cc31)CN(C(=O)c1ccccc1)CC2 [NMP-144] | – | 90.6 | 35.7 ± 13.9 | -48.1 | -5.2 | 706 ± 110 |
